According to article PMC7504387, “Antimicrobial and Amyloidogenic Activity of Peptides Synthesized on the Basis of the Ribosomal S1 Protein from Thermus Thermophilus” (International Journal of Molecular Sciences, 2020):
In brackets after ≈: the same amount, converted by molar mass. Entries after “also recorded” stand apart in the source; their conditions may differ. Where a SMILES comes first, the peptide text is derived from it. Where no end group is shown, it is not given here. [ ]: non-standard residue; d: D form. Sar = CNCC(=O)O

How the values were obtained:
[1] = system: T. thermophilus cell culture; type: cell-based; settings: for minimal inhibitory concentration (MIC): optical absorption at 600 nm after 24 h incubation, 5 repeats for R23I, 2 for R23T and V10I
Description: UV-Vis spectra were recorded using a spectrophotometr SF-102 (Akvilon, Moscow, Russia). At the end of the incubation, the density of the medium was estimated by spectrophotometry in a cuvette 10 mm with a total volume of 100 μL. The cuvettes were filled with the peptide water solutions and spectra were collected, using a wavelength from 600 nm. Biological activity of peptides was evaluated by their minimum concentration, which that may inhibit the growth of T. thermophilus bacteria culture. Biological activity of peptides was counted by using the following equation: (1) E=1−A (sample with peptide)/A (sample without peptide), where E is a biological activity of peptides, A is an optical absorption after 24 h incubation with and without peptide.
To construct a dose-effect curve and estimate the quantitative parameters of the curves, the statistical environment R and the drc package were used. The choice of model for describing the functional dependence was determined by several parameters: the logarithm of the maximum value of the likelihood function (logLik), the Akaike information criterion (IC), and the residual variance (Res var).
The algorithm for evaluating antimicrobial activity includes the study of this process and the dose–response relationship. The reaction of a biological object determines a quantitative assessment of the antimicrobial effect, depending not only on the concentration of the peptide, but also on the time of its action. Almost any impact begins with a certain threshold. An important final result of the experiment is the assessment of this threshold—the minimum inhibitory concentration (MIC) at which peptide influence is observed.

[2] = Thioflavine T fluorescence assay of peptide aggregation; type: physicochemical; settings: ThT 0.2 mM, 37 °C; for amyloids in peptide preparation according to ThT fluorescence: peptide alone; for ThT fluorescence intensity, final: peptide alone 0.2 mM, 1% DMSO, end of kinetics (time axis to 80 min)
Description: (§1) Fibrils growth was monitored by thioflavine T (ThT) (Sigma-Aldrich, St. Louis, MO, USA) fluorescence. The kinetics of aggregation of peptides was studied using the method of fluorescence spectroscopy. Each kinetics graph was plotted based on the average of several results measured at different time intervals. To facilitate dissolution, all the samples of peptides were pre-dissolved in 100% DMSO, then buffers 50 mM Tris-HCl, pH 7.5, 150 mM NaCl or 20% acetic acid pH 2.0, 150 mM NaCl were added (1% final concentration DMSO) and filtered through […] membranes to remove small aggregates. ThT is the most commonly used fluorescent dye for the following amyloid formation semi-quantitatively in vitro. Free ThT has excitation and emission maxima at ∼350 and ∼450 nm, respectively (after binding to fibrils, the excitation and emission λmax change to ∼450 and ∼482–485 nm, respectively). A stock solution of ThT was prepared at a concentration of 20 mM in 50 mM Tris-HCl, pH 7.5, 150 mM NaCl or 20% acetic acid pH 2.0, 150 mM NaCl, respectively and stored at 4 °C protected from light. The final concentration of ThT was 0.2 mM, and each peptide was 0.2 mM. ThT was present in the sample during the fibril formation reaction. Measurements of ThT fluorescence were performed on a Cary Eclipse fluorescence spectrophotometer (Varian, Mulgrave, Australia) in quartz cells 3 × 3 mm at 37 °C.

[3] = system: ribosomal S1 protein from T. thermophilus; assay: Electron microscopy, coaggregation of peptide with S1 protein
Description: (§2) The presence of amyloid fibrils in the test samples was monitored by transmission electron microscopy (TEM). End-point solutions of peptides were collected and the samples were dissolved in the same solution to 0.2 mg/mL before studying with electron microscopy. A formvar-coated copper grid 400 mesh (Electron Microscopy Sciences, Hatfield, PA, USA) was placed on a 10 μL sample. After 5 min absorption, the grids with the preparation were negatively stained for 1.5–2.0 min with 1% (weight/volume) aqueous solution of uranyl acetate. The excess of the staining agent was removed with filter paper. The preparations were analyzed using a JEM-100C (Jeol, Tokyo, Japan) transmission electron microscope at the accelerating voltage of 80 kV. Images were recorded on the Kodak electron image film (SO-163) at nominal magnification of 40,000–60,000.

T. thermophilus cells = assay: Electron microscopy of intact and peptide-treated T. thermophilus cells; type: cell-based
Description: Along with the spectrophotometric method for determining the antimicrobial activity of peptides, the viability of cells was evaluated using electron microscopy. […] At the given peptide concentration, cells with a typical morphology and flagella were often found. Many protein aggregates were also observed. The absence of an antimicrobial effect with an increase in the concentration of the peptide to 1000 μg/mL, consistent with the spectrophotometry data of the antimicrobial activity of peptides (Figure 3).
as §2

[4] = Transmission electron microscopy of peptide preparations; type: physicochemical; settings: peptide alone
Description: as §2

[5] = system: ribosomal S1 protein from T. thermophilus; assay: Thioflavine T fluorescence, coaggregation of peptide with S1 protein; settings: S1:peptide ratios 1:1 and/or 1:5
Description: as §1

[6] = peptide:S1 protein ratio 5:1 (S1:peptide = 1:5)

With `NC[C@H]1O[C@H](O[C@H]2[C@H](O)[C@@H](O[C@H]3O[C@H](CO)[C@@H](O)[C@H](N)[C@H]3O)[C@H](N)C[C@@H]2N)[C@H](O)[C@@H](O)[C@@H]1O` [kanamycin, reference compound] the “change of optical density of T. thermophilus culture over time” value ([1]; 50 μg/mL in medium, OD 600 nm versus sampling time, DMSO control reached 0.8) was “no increase in the optical density”, the “effectiveness E = 1 − A(sample with peptide)/A(sample without peptide)” value ([1]; T. thermophilus culture, OD 600 nm, 24 h, maximum observed, probably a limitation of the method) was no more than 0.8 and the “concentration close to 50% of the inhibition of cell culture growth” value ([1]; T. thermophilus culture, dose-response curve, log-logistic model) was roughly 10 µg/mL.

For `CC(C)[C@H](NC(=O)CNC(=O)CN(C)C(=O)CNC(=O)CNC(=O)[C@H](CCCNC(=N)N)NC(=O)[C@H](CCCNC(=N)N)NC(=O)[C@H](CCCNC(=N)N)NC(=O)[C@H](CCC(N)=O)NC(=O)[C@H](CCCNC(=N)N)NC(=O)[C@H](CCCNC(=N)N)NC(=O)[C@H](CCCCN)NC(=O)[C@H](CCCCN)NC(=O)[C@@H](N)CCCNC(=N)N)C(=O)N[C@H](C(=O)N[C@@H](CCC(=O)O)C(=O)NCC(=O)N[C@H](C(=O)N[C@H](C(=O)N[C@H](C(=O)N[C@@H](CCC(=O)O)C(=O)N[C@H](C(=O)N[C@H](C(=O)O)[C@@H](C)O)C(C)C)C(C)C)C(C)C)[C@@H](C)O)C(C)C` [R23T] (HELM PEPTIDE1{R.K.K.R.R.Q.R.R.R.G.G.[Sar].G.V.V.E.G.T.V.V.E.V.T}$$$$V2.0; N-terminus and C-terminus assumed), the “amyloids in peptide preparation according to ThT fluorescence” value [2] was “absence of R23T amyloids”, the “morphology of peptide/S1 protein mixture by electron microscopy” value (from here on “morphology of peptide/S1 protein mixture”) ([3]; peptide:S1 protein ratio 1:1) was “aggregates are observed; also recorded: aggregates of different sizes” and the “morphology of peptide/S1 protein mixture” value [3, 6] was “aggregates of different morphology (type 1 and type 2), fibrils and thin films are formed; also recorded: both the fibrils and films were formed”. For the same compound, the “minimal inhibitory concentration (MIC)” value ([1]; T. thermophilus culture) was 500 µg/mL (≈ 193 µM), the “cell morphology by electron microscopy” value (T. thermophilus cells; peptide 100 μg/mL) was “did not differ from the control” and the “cell morphology by electron microscopy” value (T. thermophilus cells; peptide 500 μg/mL) was “cells were often damaged”. The “fibril/aggregate formation by electron microscopy” value ([4]; 5 h incubation at 37 °C, 50 mM TrisHCl pH 7.5, 150 mM NaCl) was “did not form fibrils, but the aggregates were observed”.

With “GlyGlySarGlyVVEGTVVEVT (GG[Sar]GVVEGTVVEVT) [G14T, elongated peptide GlyGlySarGly…]” the “amyloids on joint incubation with S1 protein according to ThT fluorescence” value [5] was “presence of amyloids, which tend to disaggregate”, the “ThT fluorescence intensity, final” value [2] was 4 a.u and the “amyloids in peptide preparation according to ThT fluorescence” value [2] was “presence of amyloids”. For the same compound, the “morphology of peptide/S1 protein mixture” value ([3]; peptide:S1 protein ratio 1:1) was “fibrils are not formed” and the “aggregate/fibril morphology according to electron microscopy” value ([4]; negative staining, TEM) was “short dense fibrils”.

In the case of VTDFGVFVEI [V10I], the “minimal inhibitory concentration (MIC)” value ([1]; T. thermophilus culture) is reported as 1000 µg/mL.

In the case of “DFGVFVNLG [D9G, amyloidogenic peptide … based on the ribosomal S1 protein from T. thermophilus]”, the “biological activity (growth inhibition) in the range of studied concentrations” value ([1]; T. thermophilus culture, OD 600 nm, 24 h, single repeat) is reported as “did not show biological activity”.

With “VVEGTVVEVT [V10T, unmodified amyloidogenic peptide … based on the ribosomal S1 protein from T. thermophilus]” the “amyloids on joint incubation with S1 protein according to ThT fluorescence” value [5] was “presence of amyloids, which tend to disaggregate”, the “morphology of peptide/S1 protein mixture” value ([3]; peptide:S1 protein ratio 1:1) was “only aggregates are present” and the “morphology of peptide/S1 protein mixture” value [3, 6] was “both aggregates and fibrils are present; also recorded: led to the formation of fibrils”. For the same compound, the “cell morphology by electron microscopy” value (T. thermophilus cells; peptide 100 μg/mL) was “had no toxic effect”.

With “GlyGlySarGlyVTDFGVFVEI [G14I, elongated peptide GlyGlySarGly[…]]” the “ThT fluorescence intensity, final” value [2] was 80 a.u and the “amyloids in peptide preparation according to ThT fluorescence” value [2] was “presence of amyloids”.
